Results reported in patent US5256668A, “Aminopyrimidine derivatives as antiviral agents for respiratory syncytial virus” (American Home Products Corporation, priority 1993, dated 1993).
In brackets after ≈: the same amount, converted by molar mass. Where two headings read alike, the source gives them in different places.

Columns and labels:
[1] = Cellular toxicity, minimal toxic dose that inhibits all growth, Vero; format: cell-based; settings: monkey, vero cells
Experimental: (§1) The cytotoxic activities for the compounds of Examples 1 and 2, amantadine and ribavirin were determined in five different cell lines.

[2] = Cellular toxicity, minimal toxic dose that inhibits all growth, MRC-5; format: cell-based; settings: human, mrc-5 cells
Experimental: as §1

[3] = Cellular toxicity, minimal toxic dose that inhibits all growth, HEp-2; format: cell-based; settings: human, hep-2 cells
Experimental: as §1

[4] = Cellular toxicity, minimal toxic dose that inhibits all growth, A549; format: cell-based; settings: human, a549 cells
Experimental: as §1

[5] = test system: respiratory syncytial virus RSV-9320 (subgroup B); test: Anti-RSV activity (RSV-9320) in HEp-2 cells; format: cell-based; settings: for IC50: human respiratory syncytial virus; for activity against subgroup B (RSV-9320): in words
[6] = Cellular toxicity (TD50) in the anti-RSV test; settings: human, hep-2 cells
[7] = Cellular toxicity, minimal toxic dose that inhibits all growth, MDCK; format: cell-based, Canine; settings: dog
Experimental: as §1

[8] = test system: respiratory syncytial virus RSVA2 (subgroup A); test: Anti-RSV activity (RSVA2) in HEp-2 cells, crystal violet staining of cytopathic effect; format: cell-based; settings: for EC50 / IC50: human respiratory syncytial virus; for EC50: read-out: Anti-RSVA2 ED50; for activity against subgroup A (RSVA2): in words
[9] = in vitro; settings: human, hep-2 cells
[10] = test system: FluA/WSN; test: Anti-flu activity against FluA/WSN in MDCK cells; format: cell-based, influenza A virus
[11] = Solubility at 100 μg/ml (footnote of Table 4); format: physicochemical; settings: footnote a of Table 4
[12] = Table 4, Vero, read-out: Minimal Toxic Dose that Inhibits All Growth, Vero
[13] = Table 4, MRC-5, read-out: Minimal Toxic Dose that Inhibits All Growth, MRC-5
[14] = Table 4, HEp-2, read-out: Minimal Toxic Dose that Inhibits All Growth, HEp-2
[15] = Table 4, A549, read-out: Minimal Toxic Dose that Inhibits All Growth, A549
[16] = HEp-2, read-out: Median Inhibitory Concentration (IC50), RSV-9320
[17] = Table 4, MDCK, read-out: Minimal Toxic Dose that Inhibits All Growth, MDCK
[18] = Table 3, HEp-2 cells, read-out: Median Inhibitory Concentration (IC50), RSV-9320
[19] = 72 h, Table 2, HEp-2 cells, compound added 2 h before infection, 3 days
[20] = Table 3, HEp-2 cells, read-out: Median Inhibitory Concentration (IC50), RSVA2

NC12CC3CC(CC(C3)C1)C2 [Amantadine, amantadine, reference compound]
MCC [1, 12]: 100 µg/mL | MCC [2, 13]: 100 µg/mL | MCC [3, 14]: 100 µg/mL | MCC [4, 15]: > 100 µg/mL | IC50 [5, 16]: 16 µg/mL (≈ 106 µM) | CC50 at 72 h [6]: 100 µg/mL (≈ 661 µM) | MCC [7, 17]: > 100 µg/mL | EC50 ([8]; HEp-2, 72 h): 50 µg/mL (≈ 331 µM)

Cc1nc(=O)c(C#N)c(NCCc2cccnc2)[nH]1 [Compound 1]
CC50 at 72 h [9]: > 16 µg/mL | anti-flu activity against FluA/WSN [10]: inactive | MCC [1]: > 100 µg/mL | MCC [2]: 100 µg/mL | MCC [3]: > 100 µg/mL | MCC [4]: > 100 µg/mL | activity against subgroup B (RSV-9320) ([5]; HEp-2 cells): active | IC50 [5, 18]: ≤ 0.16 µg/mL | MCC ([7]; mdck): > 100 µg/mL | activity against subgroup A (RSVA2) ([8]; HEp-2 cells): active | EC50 [8, 19]: 0.05 µg/mL (≈ 0.196 µM) | IC50 [8, 20]: ≤ 0.16 µg/mL

Cc1nc(=O)c(Br)c(NCc2cncc(C#N)c2)[nH]1 [Compound 2]
CC50 at 72 h [9]: > 16 µg/mL | anti-flu activity against FluA/WSN [10]: inactive | MCC [1]: > 50 µg/mL | MCC [2]: > 50 µg/mL | solubility at 100 μg/ml [11]: Not completely soluble | MCC [3]: 50 µg/mL | MCC [4]: > 50 µg/mL | activity against subgroup B (RSV-9320) ([5]; HEp-2 cells): active | IC50 [5, 18]: ≤ 0.16 µg/mL | MCC ([7]; mdck): > 50 µg/mL | activity against subgroup A (RSVA2) ([8]; HEp-2 cells): active | EC50 [8, 19]: 0.05 µg/mL (≈ 0.156 µM) | IC50 [8, 20]: ≤ 0.16 µg/mL

CC(C)(C)c1nc(O)c(C#N)c(NCc2cccnc2)n1 [Compound 3]
CC50 at 72 h [9]: > 16 µg/mL | EC50 [8, 19]: 1.6 to 5 µg/mL (≈ 5.65 to 17.6 µM)

Cc1nc(O)c(C#N)c(NCCc2ccncc2)n1 [Compound 4]
CC50 at 72 h [9]: > 16 µg/mL | EC50 [8, 19]: 0.16 µg/mL (≈ 0.627 µM)

Cc1nc(=O)c(C#N)c(NCc2ccccc2)[nH]1 [Compound 5]
CC50 at 72 h [9]: > 16 µg/mL | EC50 [8, 19]: 1.6 µg/mL (≈ 6.66 µM)

Cc1nc(=O)c(C#N)c(NCCN(C)C)[nH]1 [Compound 6]
CC50 at 72 h [9]: > 16 µg/mL | EC50 [8, 19]: 5 µg/mL (≈ 22.6 µM)

Cc1nc(=O)c(C#N)c(NCCN2CCCC2)[nH]1 [Compound 7]
CC50 at 72 h [9]: 16 µg/mL (≈ 64.7 µM) | EC50 [8, 19]: 1.6 µg/mL (≈ 6.47 µM)

Cc1nc(=O)c(Br)c(NCCc2cccnc2)[nH]1 [Compound 8]
CC50 at 72 h [9]: > 16 µg/mL | EC50 [8, 19]: 0.005 µg/mL (≈ 0.0162 µM)

CCCN(CCC)CCNc1[nH]c(C)nc(=O)c1Br [Compound 9]
CC50 at 72 h [9]: > 16 µg/mL | EC50 [8, 19]: 1.6 µg/mL (≈ 4.83 µM)

Cc1nc(=O)c(Br)c(NCc2ccc3c(c2)OCO3)[nH]1 [Compound 10]
CC50 at 72 h [9]: > 16 µg/mL | EC50 [8, 19]: 0.05 µg/mL (≈ 0.148 µM)

Cc1nc(=O)c(Br)c(NCc2ccsc2)[nH]1 [Compound 11]
CC50 at 72 h [9]: > 16 µg/mL | EC50 [8, 19]: 0.5 µg/mL (≈ 1.67 µM)

C=CCOc1ccc(CCNc2[nH]c(C)nc(=O)c2Br)cc1OC [Compound 12]
CC50 at 72 h [9]: > 16 µg/mL | EC50 [8, 19]: 0.5 µg/mL (≈ 1.27 µM)

Cc1nc(=O)c(Cl)c(NCc2cncc(Br)c2)[nH]1 [Compound 13]
CC50 at 72 h [9]: > 16 µg/mL | EC50 [8, 19]: 0.016 µg/mL (≈ 0.0485 µM)

COc1ccc(Br)cc1CCNc1[nH]c(C)nc(=O)c1Br [Compound 14]
CC50 at 72 h [9]: > 16 µg/mL | EC50 [8, 19]: 0.5 µg/mL (≈ 1.2 µM)

Cc1nc(=O)c(F)c(NCc2cccnc2)[nH]1 [Compound 15]
CC50 at 72 h [9]: > 16 µg/mL | EC50 [8, 19]: 0.05 µg/mL (≈ 0.213 µM)

Cc1nc(=O)c(Br)c(NCCN(C)C)[nH]1 [Compound 16]
CC50 at 72 h [9]: > 16 µg/mL | EC50 [8, 19]: 0.16 µg/mL (≈ 0.582 µM)

Cc1nc(NCc2cncc(Br)c2)c(Br)c(=O)[nH]1 [Compound 17]
CC50 at 72 h [9]: > 16 µg/mL | EC50 [8, 19]: 0.016 µg/mL (≈ 0.0428 µM)

NC(=O)c1ncn([C@@H]2O[C@H](CO)[C@@H](O)[C@H]2O)n1 [Ribavirin, ribavirin, reference compound]
MCC [1, 12]: 100 µg/mL | MCC [2, 13]: 100 µg/mL | MCC [3, 14]: 50 µg/mL | MCC [4, 15]: 100 µg/mL | IC50 [5, 16]: 5 µg/mL (≈ 20.5 µM) | CC50 at 72 h [6]: 50 µg/mL (≈ 205 µM) | MCC [7, 17]: 100 µg/mL | EC50 ([8]; HEp-2, 72 h): 1.6 to 5 µg/mL (≈ 6.55 to 20.5 µM) | IC50 ([8]; HEp-2, read-out: Median Inhibitory Concentration (IC50), RSVA2): 1.6 to 5 µg/mL (≈ 6.55 to 20.5 µM)
